Reference: ChEMBL document CHEMBL1201862, “PubChem BioAssay data set” (2004)
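Briefly, cells in 96-well plates were exposed to five compound concentrations for 48 h, and endpoints were estimated by linear interpolation. GI50: concentration for 50% inhibition of growth.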 The source made the active and inactive calls. Rule as the data show it: active = GI50 up to about 1.1 µM and inactive = higher.

Legend:
Experiment in all cases: inhibition of tumour cell growth, NCI panel, 48 h
U-251 = tested on: U-251
OVCAR-5 = tested on: OVCAR-5
MDA-N = tested on: MDA-N
HL-60 = tested on: HL-60
RXF 393 = tested on: RXF 393
OVCAR-4 = tested on: OVCAR-4
MDA-MB-435 = tested on: MDA-MB-435
NCI-H23 = tested on: NCI-H23
OVCAR-3 = tested on: OVCAR-3
CCRF-CEM = tested on: CCRF-CEM
T47D = tested on: T47D
SF-295 = tested on: SF-295
A498 = tested on: A498
EKVX = tested on: EKVX
HCT-15 = tested on: HCT-15
786-0 = tested on: 786-0
SN12C = tested on: SN12C
UO-31 = tested on: UO-31
SF-268 = tested on: SF-268
Hs-578T = tested on: Hs-578T

SMILES | GI50 (U-251) | GI50 (OVCAR-5) | GI50 (MDA-N) | GI50 (HL-60) | GI50 (RXF 393) | GI50 (OVCAR-4) | GI50 (MDA-MB-435) | GI50 (NCI-H23) | GI50 (OVCAR-3) | GI50 (CCRF-CEM) | GI50 (T47D) | GI50 (SF-295) | GI50 (A498) | GI50 (EKVX) | GI50 (HCT-15) [µM] | GI50 (786-0) | GI50 (SN12C) | GI50 (UO-31) | GI50 (SF-268) | GI50 (Hs-578T)
O=S(=O)(O)c1cc(/N=N/c2cccc3ccccc23)c(O)c2ncccc12 | 42 µM (inactive) | 72.8 µM (inactive) | 58.3 µM (inactive) | 37.8 µM (inactive) | 62.8 µM (inactive) | 46 µM (inactive) | > 100 µM (inactive) | 38.9 µM (inactive) | 22.5 µM (inactive) | 24.7 µM (inactive) | 55.7 µM (inactive) | > 100 µM (inactive) | 31.8 µM (inactive) | 30.5 µM (inactive) | 47.2 | 38.7 µM (inactive) | 60 µM (inactive) |  |  | 
COc1ccc(/C=C2\CCC(C)c3c2nc(N)c(C#N)c3-c2ccc(OC)c(OC)c2)cc1OC (stereo not drawn) | 9.44 µM (inactive) | 36.9 µM (inactive) | 33.4 µM (inactive) | 5.08 µM (inactive) | 4.01 µM (inactive) |  | 10.8 µM (inactive) | 5.6 µM (inactive) | 9.29 µM (inactive) | 3.89 µM (inactive) | 1.13 µM (inactive) | 6 µM (inactive) |  | 1.36 µM (inactive) | 5.71 | 8.89 µM (inactive) | > 100 µM (inactive) | 3.16 µM (inactive) | 52.7 µM (inactive) | 9.16 µM (inactive)
O=c1/c(=C/c2c(O)ccc3ccccc23)sc2nc3ccccc3n12 | > 100 µM (inactive) | > 100 µM (inactive) |  | > 100 µM (inactive) | > 100 µM (inactive) | > 100 µM (inactive) |  | > 100 µM (inactive) | > 100 µM (inactive) | > 100 µM (inactive) |  | > 100 µM (inactive) | > 100 µM (inactive) | > 100 µM (inactive) | > 100 | > 100 µM (inactive) | > 100 µM (inactive) | > 100 µM (inactive) | > 100 µM (inactive) | 
Cc1nnc2sc(Cc3cnc(N)s3)nn12 | > 100 µM (inactive) | > 100 µM (inactive) |  | > 100 µM (inactive) | > 100 µM (inactive) | > 100 µM (inactive) |  | > 100 µM (inactive) |  | > 100 µM (inactive) | > 100 µM (inactive) |  |  | > 100 µM (inactive) | > 100 | > 100 µM (inactive) | > 100 µM (inactive) | > 100 µM (inactive) | > 100 µM (inactive) | > 100 µM (inactive)
O=C(Nc1ccc(C(F)(F)F)cc1[N+](=O)[O-])c1cccnc1 | 5 µM (inactive) | 73.5 µM (inactive) |  | 3.72 µM (inactive) |  | 4.43 µM (inactive) | 0.537 µM (active) | 33.2 µM (inactive) | 2.41 µM (inactive) | 4.85 µM (inactive) | > 100 µM (inactive) | 4.42 µM (inactive) | 18.3 µM (inactive) | 4.61 µM (inactive) | 2.91 | 10.7 µM (inactive) | 7.83 µM (inactive) | 8.85 µM (inactive) | 4.07 µM (inactive) | 6.53 µM (inactive)
COc1nc2c(c(=O)n1C)N=C(c1ccc(Cl)cc1)CC(c1ccccc1)N2 (stereo not drawn) | 35.1 µM (inactive) | 25.6 µM (inactive) | 18.8 µM (inactive) |  | 22.5 µM (inactive) | 13.3 µM (inactive) | 39 µM (inactive) | 25.2 µM (inactive) | 35.1 µM (inactive) | 27.7 µM (inactive) |  | 18.8 µM (inactive) | 41.6 µM (inactive) | 21.5 µM (inactive) | 15 | 33.8 µM (inactive) | 21.7 µM (inactive) | 33.5 µM (inactive) |  | 
N#Cc1ccc(/C=N/NC(=O)CSCC(=O)N/N=C/c2ccc(C#N)cc2)cc1 | 48.1 µM (inactive) | > 100 µM (inactive) |  | > 100 µM (inactive) | > 100 µM (inactive) | > 100 µM (inactive) | > 100 µM (inactive) | > 100 µM (inactive) | > 100 µM (inactive) |  | > 100 µM (inactive) | > 100 µM (inactive) | > 100 µM (inactive) | > 100 µM (inactive) | > 100 | > 100 µM (inactive) | > 100 µM (inactive) | > 100 µM (inactive) | > 100 µM (inactive) | > 100 µM (inactive)
CC12CCC(=O)N1c1cncnc1N2 (stereo not drawn) | > 10 µM (inactive) | > 10 µM (inactive) | > 10 µM (inactive) | 0.0374 µM (active) |  | > 10 µM (inactive) | > 10 µM (inactive) | > 10 µM (inactive) | > 10 µM (inactive) | > 10 µM (inactive) |  | > 10 µM (inactive) |  | > 10 µM (inactive) | > 10 | > 10 µM (inactive) | > 10 µM (inactive) | > 10 µM (inactive) | > 10 µM (inactive) | > 10 µM (inactive)
O=C1c2cccc3cc([N+](=O)[O-])cc(c23)C(=O)N1Nc1ccc([N+](=O)[O-])cc1[N+](=O)[O-] | 13.3 µM (inactive) | > 70.5 µM (inactive) |  | 4.23 µM (inactive) | 23.3 µM (inactive) | 19.3 µM (inactive) | 20.2 µM (inactive) | 17.9 µM (inactive) | 22.3 µM (inactive) | 1.85 µM (inactive) | 16.4 µM (inactive) | 27 µM (inactive) | 18.4 µM (inactive) | 24.4 µM (inactive) | 14.5 | 13.6 µM (inactive) | 22.8 µM (inactive) | 12.1 µM (inactive) | 21.7 µM (inactive) | > 31.6 µM (inactive)
C=C(C)[C@@H]1CCc2c(c(C)cc(O)c(=O)c2O)C1 | 1.3 µM (inactive) | > 73.1 µM (inactive) | 3.08 µM (inactive) | 0.462 µM (active) | 2.6 µM (inactive) | 0.146 µM (active) | 3.13 µM (inactive) | 2.58 µM (inactive) |  | 0.412 µM (active) | 3.8 µM (inactive) | 2 µM (inactive) |  | 2.49 µM (inactive) | 0.0838 | 1.41 µM (inactive) | 0.363 µM (active) | 0.92 µM (active) | 2.88 µM (inactive) | 2.16 µM (inactive)
CC(C)=C[C@H]1CCC2(OCCO2)[C@]1(C)COCc1ccccc1 |  | 18.4 µM (inactive) | 33.7 µM (inactive) |  | 5.98 µM (inactive) | 33.8 µM (inactive) | 26.4 µM (inactive) | 25.8 µM (inactive) | 22 µM (inactive) | 16.1 µM (inactive) | 35.2 µM (inactive) | 40 µM (inactive) | 23.7 µM (inactive) | 33 µM (inactive) | 39.5 | 31 µM (inactive) | 24.5 µM (inactive) | 43.6 µM (inactive) | 48.9 µM (inactive) | 
CCCNC(=O)Cn1c2c(c3ccccc31)CCCC2 |  | > 100 µM (inactive) | 68.7 µM (inactive) | 29.6 µM (inactive) |  | 45.8 µM (inactive) | > 100 µM (inactive) | 72.3 µM (inactive) | 36.9 µM (inactive) | > 100 µM (inactive) |  | 38.5 µM (inactive) | 27.8 µM (inactive) | 56.6 µM (inactive) | 45.2 | > 100 µM (inactive) | 65.2 µM (inactive) | 20 µM (inactive) | > 100 µM (inactive) | 23.1 µM (inactive)
CC(C)(C)[Si](C)(C)OC1/C(=C/C#N)C(n2ccc(=O)[nH]c2=O)OC1CO (stereo not drawn) | > 100 µM (inactive) | > 100 µM (inactive) | > 100 µM (inactive) |  | > 100 µM (inactive) | > 100 µM (inactive) | > 100 µM (inactive) | > 100 µM (inactive) | > 100 µM (inactive) |  | > 100 µM (inactive) | > 100 µM (inactive) | > 100 µM (inactive) |  |  | > 100 µM (inactive) |  | > 100 µM (inactive) | > 100 µM (inactive) | 
Cc1cc(C)c2c(c1)C(=O)/C(=C/c1ccccc1C(=O)O)C2 | 35.7 µM (inactive) |  | 67.5 µM (inactive) | 57.7 µM (inactive) | 38.7 µM (inactive) | 45.1 µM (inactive) |  |  | 22.5 µM (inactive) | 44.2 µM (inactive) | 39 µM (inactive) | 52.2 µM (inactive) | 67 µM (inactive) | 29.1 µM (inactive) | 54.3 | > 100 µM (inactive) | 53.8 µM (inactive) | > 100 µM (inactive) | 61.7 µM (inactive) | > 100 µM (inactive)
CCOC(=O)CCCn1nnc(C(=O)OCC)c1C(=O)OCC | > 100 µM (inactive) |  | > 100 µM (inactive) |  | > 100 µM (inactive) | > 100 µM (inactive) | > 100 µM (inactive) | > 100 µM (inactive) |  | > 100 µM (inactive) | > 100 µM (inactive) | > 100 µM (inactive) |  | > 100 µM (inactive) | > 100 | > 100 µM (inactive) | > 100 µM (inactive) | > 100 µM (inactive) | > 100 µM (inactive) | > 100 µM (inactive)
COC(=O)C12C3C4C5(C(=O)OC)C(C1C35C(=O)N(C(C)C)C(C)C)C42C(=O)N(C(C)C)C(C)C (stereo not drawn) | > 50 µM (inactive) | > 50 µM (inactive) |  | > 36.3 µM (inactive) | > 50 µM (inactive) | > 35.6 µM (inactive) |  | > 50 µM (inactive) | > 50 µM (inactive) | > 50 µM (inactive) |  | > 50 µM (inactive) | > 50 µM (inactive) | > 50 µM (inactive) | > 23.3 | > 50 µM (inactive) | > 50 µM (inactive) | > 50 µM (inactive) | > 50 µM (inactive) | 
Cc1cc(N=C2C=C(Br)C(=O)C(Br)=C2)cc(CN(CC(=O)O)CC(=O)O)c1O | > 100 µM (inactive) | > 100 µM (inactive) |  | > 100 µM (inactive) | > 100 µM (inactive) | > 100 µM (inactive) | > 100 µM (inactive) | > 100 µM (inactive) | > 100 µM (inactive) | > 100 µM (inactive) | > 100 µM (inactive) | > 100 µM (inactive) | > 100 µM (inactive) | > 100 µM (inactive) | > 100 | > 100 µM (inactive) | > 100 µM (inactive) | > 100 µM (inactive) | > 100 µM (inactive) | > 100 µM (inactive)
